Data taken from US20190111111A1, “Treatment of Cerebral Cavernous Malformations” (The Regents of the University of California, priority 2016, published 2019).
Entries after “also recorded” stand apart in the source; their conditions may differ.

Legend:
[1] = test system: Krit1^ECKO BMEC; experiment: ZO-1 tight junction staining in BMEC after Krit1 inactivation (immunofluorescence); type: cell-based, mouse
Experimental: (§1) BMEC at passages 1-3 were maintained at 37° C. in 95% air and 5% CO2 and were grown to 85% confluence and treated for 48 h with 5 μM 4-hydroxy-tamoxifen (Sigma, H7904) after which the medium was replaced with medium lacking 4-hydroxy-tamoxifen and cells were harvested after 72 hr in culture. For TSP1 and 3TSR addition experiments, after 24 h in regular medium, the 5 nM mrTSP1 (R&D systems, 7859-TH), 20 nM 3TSR, or vehicle were added. After 48 hr a second dose of TSP1, 3TSR, or vehicle were added and cells were harvested after an additional 24 h (FIG. 11a-11d).
BMEC were grown to confluence on collagen coated cover glass (Fisher Scientific, 12-545-81) and cells were fixed for 10 min at room temperature with 4% paraformaldehyde (PFA) in phosphate-buffered saline (PBS; pH 7.4) and then permeabilized with 0.5% Triton X-100 in PBS for 5 min. […]
The slides were viewed with a high-resolution SP5 confocal microscope (Leica Microsystems) and the images were captured with Leica application suite (LAS) software (Leica Microsystems). […] The quantification analysis was performed using Volocity® software on high-resolution confocal images.

[2] = test system: Krit1^ECKO BMEC; experiment: KLF2 and KLF4 mRNA in Krit1^ECKO BMEC (RT-qPCR); type: cell-based, mouse; conditions: in vitro, FIG. 5d
Experimental: as §1
Primary BMEC, human umbilical vein endothelial cells (HUVEC) and freshly isolated brain microvasculature total RNA were isolated using Trizol reagent, according to the manufacturer's protocol (ThermoFisher). For gene expression analysis, single stranded cDNA was produced from 10 ng of total RNA of BMEC using SuperScript III First-Strand synthesis and random primers according to the manufacture's protocol (ThermoFisher). KAPPA SyberFast qPCR kit (Kapa Biosystems) and thermal cycler (CFX96 Real-Time System, Bio-Rad) were used to determine the relative levels of the genes analyzed (primer sequences not shown) according to the manufacturer's protocol. Actin mRNA levels were used as an internal control and the 2^−ΔΔCT method was used for analysis of the data. […]

| Molecule | ZO1 junctional staining following Krit1 inactivation ([1]; 2 μM SU5416, Krit1^ECKO BMEC, FIG. 13c) | rise in KLF2 or KLF4 mRNA following Krit1 inactivation [2] | ZO-1 at BMEC tight junctions following Krit1 inactivation ([1]; 5 nM mouse recombinant TSP1, Krit1^ECKO BMEC, FIG. 3a) |
| --- | --- | --- | --- |
| Cc1cc(C)c(/C=C2\C(=O)Nc3ccccc32)[nH]1 [SU5416, reference compound] | continuous ZO1 junctional staining |  |  |
| TSP1: mouse recombinant full length thrombospondin 1 (R&D systems, 7859-TH), a large (~450 kDa) glycoprotein |  | Neither TSP1 nor 3TSR prevented | continuous ZO1 junctional staining; also recorded: prevented the loss of ZO-1 from BMEC tight junctions |
